Assay results taken from article PMC9775409, “Identification, Screening, and Comprehensive Evaluation of Novel DPP-IV Inhibitory Peptides from the Tilapia Skin Gelatin Hydrolysate Produced Using Ginger Protease” (Biomolecules, 2022).
Where two headings read alike, the source gives them in different places. Non-standard residues stand in square brackets, D forms with d. Residues, ends and D or L forms follow the SMILES beside them. No end group written: not given here. Hyp = O=C(O)[C@@H]1C[C@@H](O)CN1

Key:
[1] = Oral administration in rats, LC-MS/MS identification of peptides in plasma; settings: for Identification in rat plasma, 0.5 h: 0.5 h after oral administration of GPXGPPGPGP; for Identification in rat plasma, 0.5 h / Identification in rat plasma, 1 h: blood from abdominal aorta, ethanol protein precipitation; for Identification in rat plasma, 1 h: 1 h after oral administration of GPXGPPGPGP; for Identified in plasma at 0.5 h: rat plasma 0.5 h after oral administration of GPXGPPGPGP; for Identified in plasma at 0.5 h / Identified in plasma at 1 h: in words; for Identified in plasma at 1 h: rat plasma 1 h after oral administration of GPXGPPGPGP
[2] = tested on: DPP-IV; parameters: method as in PMID 24650211; settings: in words; cited from earlier work
[3] = in vivo, po
[4] = tested on: Caco-2 cell monolayer; settings: cited from earlier work

Identification in rat plasma, 0.5 h [1]	Identification in rat plasma, 1 h [1]	Identified in plasma at 0.5 h [1]	Identified in plasma at 1 h [1]	Identification in rat plasma, 0.5 h [3]	Identification in rat plasma, 1 h [3]	Identified in plasma at 1 h ([3]; rat)	Molecule	Inhibitory effect against DPP-IV [2]	Passage through the Caco-2 cell monolayer [4]
+	−	identified in plasma at 0.5 h	not at 1 h				O=C(O)[C@@H]1C[C@@H](O)CN1C(=O)[C@@H]1CCCN1 [PX, Pro-Hyp] (H-Pro-[Hyp]-OH)	not inhibitory against DPP-IV	
				+	−	not at 1 h	NCC(=O)N1CCC[C@H]1C(=O)N1C[C@H](O)C[C@H]1C(=O)O [GPX, Gly-Pro-Hyp] (H-Gly-Pro-[Hyp]-OH)	inhibitory effect against DPP-IV	
+	−	identified in plasma at 0.5 h	not at 1 h				O=C(O)CNC(=O)[C@@H]1C[C@@H](O)CN1C(=O)[C@@H]1CCCN1 [PXG, Pro-Hyp-Gly] (H-Pro-[Hyp]-Gly-OH)		
							GA[Hyp]GL[Hyp]GP		pass through the Caco-2 cell monolayer by paracellular diffusion
